Measurements reported in paper PMC12693419, “Design, Synthesis, Biological Evaluation, and In Silico Studies of Novel Multitarget Cinnamic Acid Hybrids” (Molecules, 2025).

How the values were obtained:
[1] = In vitro inhibition of linoleic acid lipid peroxidation (AAPH); conditions: 100 μM; anti-lipid peroxidation
Text: In the present study, the aim was to evaluate the anti-lipid peroxidation activities of the synthesized compounds 5a–i, 6a–i, 9a–i, and 11 and compare their efficacy to that of Trolox, a well-known antioxidant. Using the water-soluble compound 2,2′-azobis(2-amidinopropane) hydrochloride (AAPH), peroxyl radicals are generated through spontaneous thermal decomposition in vitro. This experimental setup imitated the lipid peroxidation processes occurring in cells due to radical activity allowing the investigation of the effectiveness of the tested compounds under conditions resembling cellular oxidative stress.
An in vitro assay was performed following previously established protocols. The compound 2,2′-Azobis(2-methylpropionamidine) dihydrochloride (AAPH) was used as a controlled source of thermally generated alkylperoxy free radicals. The formation of conjugated diene hydroperoxides through the oxidation of sodium linoleate in an aqueous dispersion at 37 °C was measured by monitoring absorbance at 234 nm. The results were compared with the reference compound, Trolox (93%) (Table 6).

[2] = biological target: T1, soybean lipoxygenase isoenzyme-1 (SLOX-1) (Glycine max, UniProt P08170); assay: In vitro inhibition of soybean lipoxygenase; type: biochemical; conditions: for IC50: pH 9.0, read-out: LOX Inh. IC50; for LOX Inh. IC50: pH 9.0
T1 construct: purchased Merck and Sigma-Aldrich
T1 sequence (P08170 1-839): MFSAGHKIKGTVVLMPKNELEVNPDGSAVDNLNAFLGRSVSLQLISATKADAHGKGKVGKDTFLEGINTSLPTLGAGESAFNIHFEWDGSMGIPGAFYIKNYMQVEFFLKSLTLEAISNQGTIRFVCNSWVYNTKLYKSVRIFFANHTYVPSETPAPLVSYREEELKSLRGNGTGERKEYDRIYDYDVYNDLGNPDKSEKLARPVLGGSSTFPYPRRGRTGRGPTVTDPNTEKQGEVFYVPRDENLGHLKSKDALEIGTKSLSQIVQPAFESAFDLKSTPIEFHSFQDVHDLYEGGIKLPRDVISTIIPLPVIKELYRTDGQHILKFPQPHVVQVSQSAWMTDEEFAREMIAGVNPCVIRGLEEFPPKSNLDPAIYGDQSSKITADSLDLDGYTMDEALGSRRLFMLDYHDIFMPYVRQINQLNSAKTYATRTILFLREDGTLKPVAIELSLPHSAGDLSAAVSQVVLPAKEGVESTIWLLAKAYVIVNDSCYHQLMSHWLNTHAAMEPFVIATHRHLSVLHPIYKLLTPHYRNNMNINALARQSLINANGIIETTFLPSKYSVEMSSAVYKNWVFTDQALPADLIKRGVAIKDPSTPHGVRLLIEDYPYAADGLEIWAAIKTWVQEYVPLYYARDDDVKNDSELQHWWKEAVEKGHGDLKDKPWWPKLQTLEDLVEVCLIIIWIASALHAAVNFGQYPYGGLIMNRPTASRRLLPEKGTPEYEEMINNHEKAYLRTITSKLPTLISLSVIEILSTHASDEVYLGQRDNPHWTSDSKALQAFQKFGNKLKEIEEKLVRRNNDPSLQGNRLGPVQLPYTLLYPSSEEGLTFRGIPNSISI
Method: In vitro anti-LOX activities were evaluated using soybean lipoxygenase isoenzyme-1 (SLOX-1), a commonly used model for mammalian LOXs.
An in vitro study was conducted following a previously reported method. The tested compounds were dissolved in DMSO (100 µM) and incubated at room temperature with 0.1 mL of sodium linoleate as the substrate and 0.2 mL of soybean lipoxygenase solution in Tris-HCl buffer (pH 9.0).

HeLa cells = assay: MTT viability assay; type: cell-based; conditions: Homo sapiens
Method: (§1) HeLa, MCF-7, U251, U87, MDA-MB-435, and MDA-MB-231 cancer cell lines were maintained in incubators at 37 °C with 5% CO2 in DMEM medium supplemented with 10% (v/v) fetal bovine serum (FBS) and antibiotics/antimycotics. All cell lines used in this study originate from the Laboratory of Biochemistry, Department of Chemistry, Aristotle University of Thessaloniki. They are low-passage, mycoplasma-free cancer cell lines that have been extensively used over the past 25 years in numerous studies across various fields of cancer research, including drug cytotoxicity testing.
(§2) All cell lines tested were seeded in 96-well plates at a concentration of 6 × 10^3 cells per well, except HeLa, which were seeded at 3 × 10^3 cells per well. The day after, cells were exposed to increasing concentrations of the compounds for 48 h. Cell viability was determined using the 3-(4,5-dimethylthiazol-2-yl)-2,5-diphenyltetrazolium bromide (MTT) assay, a colorimetric assessment of cellular metabolic activity as described previously. Absorbance values from treated samples were normalized to those of untreated controls, which were assigned to a 100% viability value.

MCF-7 cells = assay: MTT viability assay; type: cell-based; conditions: Homo sapiens, MCF7, 48 h
Method: as §1, §2

bovine serum albumin = biological target: T2, bovine serum albumin (Bos taurus, UniProt P02769); assay: In vitro inhibition of albumin denaturation; conditions: heat denaturation, 60 °C 10 min
T2 construct: bovine serum albumin solution (fraction V); purchased Merck and Sigma-Aldrich; host or cells: bovine serum (fraction V)
T2 sequence (P02769 25-607): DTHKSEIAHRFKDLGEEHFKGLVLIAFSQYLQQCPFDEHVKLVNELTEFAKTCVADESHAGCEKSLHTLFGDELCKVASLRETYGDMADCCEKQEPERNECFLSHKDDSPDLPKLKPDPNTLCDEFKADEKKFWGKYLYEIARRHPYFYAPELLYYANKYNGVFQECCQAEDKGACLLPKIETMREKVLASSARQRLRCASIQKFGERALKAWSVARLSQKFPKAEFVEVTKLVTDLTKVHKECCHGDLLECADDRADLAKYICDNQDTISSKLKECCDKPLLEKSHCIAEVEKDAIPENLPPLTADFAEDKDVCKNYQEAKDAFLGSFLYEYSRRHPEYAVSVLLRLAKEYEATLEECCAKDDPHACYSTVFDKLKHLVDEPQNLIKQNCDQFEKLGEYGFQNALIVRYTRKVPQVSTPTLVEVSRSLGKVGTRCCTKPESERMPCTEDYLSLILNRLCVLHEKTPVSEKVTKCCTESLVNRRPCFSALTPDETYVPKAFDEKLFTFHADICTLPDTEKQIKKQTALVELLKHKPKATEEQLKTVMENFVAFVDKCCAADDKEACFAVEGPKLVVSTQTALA
Method: The ability of a compound to inhibit the thermal denaturation of albumin is considered an indicator of anti-inflammatory activity. Heat exposure simulates conditions of cellular stress or inflammation, during which protein and tissue damage occur. Certain substances can protect proteins from denaturation upon heating by stabilizing their structure and preventing aggregation and precipitation.
Inhibition of albumin denaturation was measured following the reported method. In a test tube, 1 mL of bovine serum albumin solution (fraction V, 1% w/v in phosphate buffer, pH 7.4) and 100 μL of the test compound solution were added sequentially. The mixture was incubated at 37 °C for 15 min, followed by heating at 60 °C for 10 min. After cooling to room temperature, the absorbance was measured at 660 nm. DMSO was used as the blank, and the results were compared to acetylsalicylic acid, which served as the reference compound (Table 6).

ovine COX-2 = biological target: T3, ovine COX-2 (Ovis aries, UniProt P79208); assay: In vitro inhibition of ovine cyclooxygenase-2
T3 sequence (P79208 17-603): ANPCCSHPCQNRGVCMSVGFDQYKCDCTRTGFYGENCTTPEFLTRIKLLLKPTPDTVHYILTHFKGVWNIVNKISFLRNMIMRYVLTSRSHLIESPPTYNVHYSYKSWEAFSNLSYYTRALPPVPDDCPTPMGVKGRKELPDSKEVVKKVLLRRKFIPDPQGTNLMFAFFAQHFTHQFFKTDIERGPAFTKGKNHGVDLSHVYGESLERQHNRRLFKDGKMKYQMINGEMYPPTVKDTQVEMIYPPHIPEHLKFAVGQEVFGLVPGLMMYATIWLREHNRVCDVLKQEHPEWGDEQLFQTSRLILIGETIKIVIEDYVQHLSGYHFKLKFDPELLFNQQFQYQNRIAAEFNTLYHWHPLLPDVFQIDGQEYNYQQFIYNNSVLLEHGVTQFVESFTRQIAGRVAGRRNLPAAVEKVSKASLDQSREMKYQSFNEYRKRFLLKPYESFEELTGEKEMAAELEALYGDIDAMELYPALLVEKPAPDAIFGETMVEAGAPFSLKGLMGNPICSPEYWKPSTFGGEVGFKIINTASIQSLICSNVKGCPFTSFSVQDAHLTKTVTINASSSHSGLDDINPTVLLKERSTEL

[3] = In vitro determination of NO release with Griess reagent; conditions: 100 μM, L-cysteine, pH 7.4, 37 °C, 60 min
Text: This assay evaluates the ability of nitrate esters to release nitric oxide (NO). First, sodium nitroprusside (SNP) reacts with the thiol compound, cysteine, which serves as a reducing agent (Scheme 5). The thiol donates electrons, facilitating the breakdown of the nitroprusside complex. Afterwards, the reaction leads to the formation of intermediate complexes, such as nitrosothiol species and the decomposition of these intermediates results in the release of nitric oxide (NO). According to the literature, measurements are conducted both in the presence and absence of the thiol agent, cysteine. No significant difference was observed between the two experimental conditions, and the results were reproducible. Sodium nitroprusside (SNP) was used as the reference compound [65].
The compounds (from a 10 mM stock solution in DMSO, final concentration 100 μM) are added (20 μL) to each test tube. Then, 2 mL of phosphate buffer solution (pH 7.4) is added. L-cysteine, used as the thiol agent, is added to the mixture at a final concentration of 0.5 mM. The solution is incubated at 37 °C for 60 min, after which 1 mL is removed and mixed with 250 μL of Griess reagent (4 g sulfanilamide, 0.2 g N-(1-naphthyl)-ethylenediamine dihydrochloride, and 10 mL of H3PO4 solution, final volume adjusted to 100 mL). The mixture is allowed to stand for 10 min at room temperature, and the absorbance of the produced compound is measured at 540 nm. Sodium nitroprusside (SNP) is used as the reference compound. The results are presented as the release of NO2^− (% NO2^− (mol/mol)) induced by the compounds in the presence of L-cysteine (Table 6).

SMILES	IC50 [2] [µM]	EC50 (HeLa cells; 48 h) [µM]	EC50 (MCF-7 cells) [µM]	Albumin (inhibition of albumin denaturation) (bovine serum albumin)	COX-2 Inh. IC50 (ovine COX-2)	IC50 (HeLa cells; 48 h of exposure, read-out: IC50 in HeLa cells (positive control)) [µM]	LOX Inh. IC50 [2]	IC50 (ovine COX-2) [µM]	AAPH Inh. at 100 μΜ [1]	%NO2^− Release mol/mol at 100 μΜ [3]
COc1cccc2c1C(=O)c1c(O)c3c(c(O)c1C2=O)C[C@@](O)(C(=O)CO)C[C@@H]3O[C@H]1C[C@H](N)[C@H](O)[C@H](C)O1 [doxorubicin, reference compound]	–	–	–	–	–	~0.5	–	–	–	–
C/C(=N\O)c1ccc(NC(=O)COC(=O)/C=C/c2cccc3ccccc23)cc1 [Compound 6b, 2-((4-((E)-1-(Hydroxyimino)ethyl)phenyl)amino)-2-oxoethyl (E)-3-(naphthalen-1-yl)acrylate]	60	–	–	no	no	–	–	–	94%	1.1%
C/C(=N\O)c1ccc(NC(=O)COC(=O)/C=C/c2cc3ccccc3o2)cc1 [Compound 6f, 2-((4-((E)-1-(Hydroxyimino)ethyl)phenyl)amino)-2-oxoethyl (E)-3-(benzofuran-2-yl)acrylate]	61	–	–	no	no	–	–	–	no	0.3%
O=C(C=Cc1ccccc1)OCCOc1no[n+]([O-])c1S(=O)(=O)c1ccccc1 [Compound 11, 4-(2-(Cinnamoyloxy)ethoxy)-3-(phenylsulfonyl)-1,2,5-oxadiazole 2-oxide]	–	–	–	no	no	–	complete loss of activity and no	–	90%	11%
C/C(=N\O)c1ccc(NC(=O)COC(=O)/C=C/c2ccco2)cc1 [Compound 6d, 2-((4-((E)-1-(Hydroxyimino)ethyl)phenyl)amino)-2-oxoethyl (E)-3-(furan-2-yl)acrylate]	–	–	–	10%	no	–	no	–	54%	0.2%
C/C(=N\O)c1ccc(NC(=O)COC(=O)C=Cc2ccccc2)cc1 [Compound 6a, 2-((4-((E)-1-(Hydroxyimino)ethyl)phenyl)amino)-2-oxoethyl cinnamate]	50	–	–	no	–	–	–	100	50.2%	no activity and no

Now from value to compound, other results behind:

IC50 [2] [µM]	EC50 (HeLa cells; 48 h) [µM]	EC50 (MCF-7 cells) [µM]	Albumin (inhibition of albumin denaturation) (bovine serum albumin)	COX-2 Inh. IC50 (ovine COX-2)	IC50 (HeLa cells; 48 h of exposure, read-out: IC50 in HeLa cells (positive control)) [µM]	LOX Inh. IC50 [2]	IC50 (ovine COX-2) [µM]	SMILES	AAPH Inh. at 100 μΜ [1]	%NO2^− Release mol/mol at 100 μΜ [3]
55.5	46.6	> 100	no	no	–	–	–	O=C(OCc1c(-c2ccccc2)no[n+]1[O-])/C(=C/c1ccccc1)c1ccccc1 [Compound 9g, (E)-3-(((2,3-Diphenylacryloyl)oxy)methyl)-4-phenyl-1,2,5-oxadiazole 2-oxide]	90%	3%
63	–	–	no	no	–	–	–	O=C(/C=C/c1ccco1)OCc1c(-c2ccccc2)no[n+]1[O-] [Compound 9d, (E)-3-(((3-(Furan-2-yl)acryloyl)oxy)methyl)-4-phenyl-1,2,5-oxadiazole 2-oxide]	78%	no
–	–	–	no	no	–	no	–	O=C(C=Cc1cccc2ccccc12)OCc1c(-c2ccccc2)no[n+]1[O-] [Compound 9b, 3-(((3-(Naphthalen-1-yl)acryloyl)oxy)methyl)-4-phenyl-1,2,5-oxadiazole 2-oxide]	84%	1.2%
10	–	–	no	no	–	–	–	O=C(OCc1c(-c2ccccc2)no[n+]1[O-])/C(=C/c1cccc2ccccc12)c1ccccc1 [Compound 9h, (E)-3-(((3-(Naphthalen-1-yl)-2-phenylacryloyl)oxy)methyl)-4-phenyl-1,2,5-oxadiazole 2-oxide]	94.5%	no
